Patent US5362744A, “Tetrazole-substituted urea acat inhibitors” (Warner-Lambert Company, priority 1993, dated 1994)

Legend:
adrenal gland = assay: in vivo toxicity screen in guinea pigs (adrenal histopathology); design: species or system male guinea pigs of the Hartley strain; settings: 100 mg/kg daily by gavage, 2 weeks; for adrenal toxicity class: oleic acid vehicle
Method: The nontoxic nature of representative compounds of the present invention was measured and compared against previously disclosed tetrazole urea ACAT inhibitors using an in vivo toxicity screen developed by Dominick, et al., 1993. Male guinea pigs of the Hartley strain (450-500 g) were obtained from Charles River and randomly divided into treatment groups. They were fed standard guinea pig chow ad libitum and dosed daily (AM) by gavage (100 mg/kg). The test compounds were dissolved or suspended in an oleic acid vehicle to facilitate absorption. After 2 weeks the animals were sacrificed by CO2 asphyxiation in the nonfasted state 16 hours after the last dose. Adrenal glands were weighed, fixed in 10% formalin, processed by routine paraffin techniques, sectioned, and then stained with hematoxylin and eosin for light microscopy. Toxicity was defined by the incidence, severity, and complexity of adrenal histopathologic alterations in the zona fasciculata (e.g., adrenal cortical atrophy, increased coarse vacuolation, single cell necrosis, inflammatory cell infiltrates, mineralization/ectopic bone formation, and increased cytoplasmic eosinophilia).

total cholesterol = assay: in vivo screen designated APCC (total cholesterol in rats on PCC diet); design: species or system male Sprague-Dawley rats; settings: Rattus norvegicus, PCC diet overnight, read-out: APCC (%ΔTC): percent change in total cholesterol between control and drug-treated animals
Excerpt: In one in vivo screen designated APCC, male Sprague-Dawley rats (200 to 225 g) were randomly divided into treatment groups and dosed at 4 PM with either vehicle (CMC/Tween) or suspensions of compounds in vehicle. The normal chow diet was then replaced with the PCC diet (5.5% peanut oil, 1.5% cholesterol, and 0.5% cholic acid). The rats consumed this diet ad libitum during the night and were sacrificed at 8 AM to obtain blood samples for cholesterol analysis using standard procedures. Statistical differences between mean cholesterol values for the same vehicle were determined using analysis of variance followed by Fisher's least significant test. The results of this trial for representative compounds of the present invention appear in Table II wherein percent change means the difference in total cholesterol between control, and the drug-treated animals.

SMILES	change in vivo at 30 mg/kg (total cholesterol) [%]	further results
CCCCCCCCCCCCn1nnc(N(C(=O)Nc2c(OC)cc(OC)cc2OC)C2CCCCC2)n1 [Example 5, N-cyclohexyl-N-(2-dodecyl-2H-tetrazol-5-yl)-N'-(2,4,6-trimethoxyphenyl)-urea]	-67	drug related adrenal changes (adrenal gland): no drug related adrenal changes; adrenal toxicity class (adrenal gland): nontoxic to the adrenal gland
CCCCCCCCCCCCn1nnc(N(C(=O)Nc2ccc(F)cc2F)C2CCCCC2)n1 [Example 6, N-Cyclohexyl-N'-(2,4-difluorophenyl)-N-(2-dodecyl-2H-tetrazol-5-yl)-urea]	-33	–
CCCCCCCCCCCCn1nnc(N(C(=O)Nc2c(C(C)C)cccc2C(C)C)C2CCCCC2)n1 [Example 4, N'-[2,6-bis(1-methylethyl)phenyl]-N-cyclohexyl-N-(2-dodecyl-2H-tetrazol-5-yl)-urea]	-10	–
CCCCCCCCCCCCCn1nnc(NC(=O)Nc2c(C(C)C)cccc2C(C)C)n1 [N-[2,6-bis(1-methylethyl)-phenyl]-N'-(2-tridecyl-2H-tetrazol-5-yl)-urea]	–	cytotoxic zonal atrophy of the zona fasciculata (treated animals affected) (adrenal gland): 4/6; increased coarse vacuoles (animals affected) (adrenal gland): 5/6; inflammatory cell infiltrates (animals affected) (adrenal gland): 2/6; necrosis of the adrenal cortex (animals affected) (adrenal gland): 3/6; adrenal toxicity class (adrenal gland): highly toxic to the adrenal gland
CCCCCCCCCCCCCCn1nnc(N(C(=O)Nc2c(OC)cc(OC)cc2OC)c2ccccc2)n1 [Example 7, N-phenyl-N-(2-tetradecyl-2H-tetrazol-5-yl)-N'-(2,4,6-trimethoxyphenyl)-urea]	-22	–
O=C(Nc1ccc(F)cc1F)N(c1ccccc1)c1nnn(CCCCCCCCOC2CCCCO2)n1 (racemic) [Example 12, (±)N'-(2,4-difluorophenyl)-N-phenyl-N-[2-[8-[(tetrahydro-2H-pyran-2-yl)oxy]octyl]-2H-tetrazol-5-yl]-urea]	-37	–
CCCCCCCCCCCCn1nnc(CN(Cc2ccccc2)C(=O)Nc2c(OC)cc(OC)cc2OC)n1 [Example 9, N-(2-Dodecyl-2H-tetrazol-5-ylmethyl)-N-(phenylmethyl)-N'-(2,4,6-trimethoxyphenyl)-urea]	-49	–
CCN(CC)CCCCCCCCn1nnc(N(C(=O)Nc2c(C(C)C)cccc2C(C)C)c2ccccc2)n1 [Example 17, N'-[2,6-bis(1-methylethyl)phenyl]-N-[2-[8-(diethylamino)octyl]-2H-tetrazol-5-yl]-N-phenyl-urea]	-30	–
CC(C)c1cccc(C(C)C)c1NC(=O)N(c1ccccc1)c1nnn(CCCCCCCCO)n1 [Example 13, N'-[2,6-Bis(1-methylethyl)phenyl]-N-[2-(8-hydroxyoctyl)-2H-tetrazol-5-yl]-N-phenyl-urea]	-17	–
CCCCCCCCCCCCn1nnc(NC(=O)Nc2c(C(C)C)cccc2C(C)C)n1 [N-[2,6-bis(1-methylethyl)-phenyl]-N'-(2-dodecyl-2H-tetrazol-5-yl)-urea]	–	cytotoxic zonal atrophy of the zona fasciculata (treated animals affected) (adrenal gland): 3/6; increased coarse vacuoles (animals affected) (adrenal gland): 5/6; inflammatory cell infiltrates (animals affected) (adrenal gland): 2/6; necrosis of the adrenal cortex (animals affected) (adrenal gland): 2/6; adrenal toxicity class (adrenal gland): highly toxic to the adrenal gland
COc1cc(OC)c(NC(=O)N(c2ccccc2)c2nnn(CCCCCCCC=O)n2)c(OC)c1 [Example 16, N-[2-(8-oxooctyl)-2H-tetrazol-5-yl]-N-phenyl-N'-(2,4,6-trimethoxyphenyl)-urea]	-8	–
CC(C)c1cccc(C(C)C)c1NC(=O)N(c1ccccc1)c1nnn(CCCCCCCC=O)n1 [Example 15, N'-[2,6-bis(1-methylethyl)phenyl]-N-[2-(8-oxooctyl)-2H-tetrazol-5-yl]-N-phenyl-urea]	-29	–
CC(C)c1cccc(C(C)C)c1NC(=O)N(c1ccccc1)c1nnn(CCCCCCCCOC2CCCCO2)n1 (racemic) [Example 10, (±)N'-[2,6-bis(1-methylethyl)phenyl]-N-phenyl-N-[2-[8-[(tetrahydro-2H-pyran-2-yl)oxy]octyl]-2H-tetrazol-5-yl]-urea]	-42	–
CCCCCCCCCCCCn1nnc(N(C(=O)Nc2ccc(F)cc2F)c2ccccc2)n1 [Example 3, N'-(2,4-Difluorophenyl)-N-(2-dodecyl-2H-tetrazol-5-yl)-N-phenyl-urea]	-63	–
COc1cc(OC)c(NC(=O)N(c2ccccc2)c2nnn(CCCCCCCCOC3CCCCO3)n2)c(OC)c1 (racemic) [Example 11, (±)N-phenyl-N-[2-[8-[(tetrahydro-2H-pyran-2-yl)oxy]octyl]-2H-tetrazol-5-yl]-N'-(2,4,6-trimethoxyphenyl)-urea]	-50	–
CCCCCCCCCCCCn1nnc(N(C(=O)Nc2c(OC)cc(OC)cc2OC)c2ccccc2)n1 [Example 2, N-(2-dodecyl-2H-tetrazol-5-yl)-N-phenyl-N'-(2,4,6-trimethoxyphenyl)-urea]	-74	–
CCCCCCCCCCCCn1nnc(N(C(=O)Nc2c(C(C)C)cccc2C(C)C)c2ccccc2)n1 [Example 1, N'-[2,6-Bis(1-methylethyl)phenyl]-N-(2-dodecyl-2H-tetrazol-5-yl)-N-phenyl-urea]	-52	–
CCCCCn1nnc(N(C(=O)Nc2c(OC)cc(OC)cc2OC)c2ccccc2)n1 [Example 8, N-(2-pentyl-2H-tetrazol-5-yl)-N-phenyl-N'-(2,4,6-trimethoxyphenyl)-urea]	-43	–
COc1cc(OC)c(NC(=O)N(c2ccccc2)c2nnn(CCCCCCCCO)n2)c(OC)c1 [Example 14, N-[2-(8-hydroxyoctyl)-2H-tetrazol-5-yl]-N-phenyl-N'-(2,4,6-trimethoxyphenyl)-urea]	-15	–
